We go through 25 molecules from patent publication US6506772B1, “Substituted [1,2,4]triazolo[1,5a]pyridine derivatives with activity as adenosine receptor ligands” (Hoffmann-La Roche Inc., priority 2000, dated 2003).

Like-named read-outs stand apart in the source and are kept apart here.

For the experiment, the target named is T1, human adenosine A2A receptor (Homo sapiens, UniProt P29274).
T1 construct: expressed in transfected cells; host or cells: CHO cells, Semliki Forest virus expression system; membrane preparation
T1 sequence (P29274 whole entry): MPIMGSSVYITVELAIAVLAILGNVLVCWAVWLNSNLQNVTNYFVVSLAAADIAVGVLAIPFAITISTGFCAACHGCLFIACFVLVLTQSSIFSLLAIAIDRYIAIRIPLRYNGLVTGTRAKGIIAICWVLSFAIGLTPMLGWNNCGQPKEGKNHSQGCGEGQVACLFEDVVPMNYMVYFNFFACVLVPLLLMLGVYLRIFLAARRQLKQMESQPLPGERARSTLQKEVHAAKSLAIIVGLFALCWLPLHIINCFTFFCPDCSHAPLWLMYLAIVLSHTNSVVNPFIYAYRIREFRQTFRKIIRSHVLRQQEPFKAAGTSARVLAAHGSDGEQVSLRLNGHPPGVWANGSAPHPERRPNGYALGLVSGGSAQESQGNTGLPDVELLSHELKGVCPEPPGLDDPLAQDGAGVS
The experiment is described as follows: Human adenosine A2A receptor [3H]-SCH-58261 binding assay. The settings on record: for selectivity (A1/A2a): ratio KiHA1 divided by KiHA2A. On the procedure: Human Adenosine A2A Receptor
The human adenosine A2A receptor was recombinantly expressed in chinese hamster ovary (CHO) cells using the semliki forest virus expression system. Cells were harvested, washed twice by centrifugation, homogenized and again washed by centrifugation. The final washed membrane pellet was suspended in a Tris (50 mM) buffer containing 120 mM NaCl, 5 mM KCl, 2 mM CaCl2 and 10 MM MgCl2 (pH 7.4) (buffer A). […] Compounds were tested at 10 concentrations from 10 μM-0.3 nM. All assays were conducted in duplicate and repeated at least two times. Assay plates were incubated for 1 hour at room temperature before centrifugation and then bound ligand determined using a Packard Topcount scintillation counter. IC50 values were calculated using a non-linear curve fitting program and Ki values calculated using the Cheng-Prussoff equation.

The mark [1] stands for this setting: affinity to human adenosine A2A receptor, read-out: Ki HA2A.
[2] abbreviates: recombinant human A2A in CHO cell membranes, [3H]-SCH-58261, Cheng-Prussoff, read-out: Ki hA2A.

With `Cc1ccsc1-c1nc2cc(C(=O)NC3CCCCC3)cc(N)n2n1` [Example 37, 5-Amino-2-(3-methyl-thiophen-2-yl)-[1,2,4]triazolo[1,5-a]pyridine-7-carboxylic acid cyclohexylamide], the Ki under setting [1] is 375 nM.
The same measure, in the same setting: to `COc1ccc(CNC(=O)c2cc(N)n3nc(-c4ccccn4)nc3c2)cc1` [Example 42, 5-Amino-2-pyridin-2-yl-[1,2,4]triazolo[1,5-a]pyridine-7-carboxylic acid 4-methoxy-benzylamide] belongs 341 nM; to `COc1ccc(-c2nc3cc(C(=O)N(CCN(C)C)Cc4ccccc4)cc(N)n3n2)s1` [Example 53, 5-Amino-2-(5-methoxy-thiophen-2-yl)-[1,2,4]triazolo[1,5-a]pyridine-7-carboxylic acid benzyl-(2-dimethylamino-ethyl)-amide], 327 nM; to `COc1ccc(-c2nc3cc(C(=O)NCCc4ccccc4OC)cc(N)n3n2)s1` [Example 54, 5-Amino-2-(5-methoxy-thiophen-2-yl)-[1,2,4]triazolo[1,5-a]pyridine-7-carboxylic acid [2-(2-methoxy-phenyl)-ethyl]-amide], 315 nM.
`COc1ccc(-c2nc3cc(C(=O)NCCc4ccccc4F)cc(N)n3n2)s1` [Example 57, 5-Amino-2-(5-methoxy-thiophen-2-yl)-[1,2,4]triazolo[1,5-a]pyridine-7-carboxylic acid [2-(2-fluoro-phenyl)-ethyl]-amide]: under setting [1], the Ki worked out at 337 nM.
As for `COc1ccc(-c2nc3cc(C(=O)NC(C)c4ccccc4)cc(N)n3n2)s1` (centres unmarked) [Example 60, 5-Amino-2-(5-methoxy-thiophen-2-yl)-[1,2,4]triazolo[1,5-a]pyridine-7-carboxylic acid (1-phenyl-ethyl)-amide], the Ki under setting [1] turned out to be 392 nM.
As for `COc1ccc(-c2nc3cc(C(=O)NCc4cccnc4)cc(N)n3n2)s1` [Example 61, 5-Amino-2-(5-methoxy-thiophen-2-yl)-[1,2,4]triazolo[1,5-a]pyridine-7-carboxylic acid (pyridin-3-ylmethyl)-amide], the Ki under setting [1] was 333 nM.
Consider `COc1ccc(-c2nc3cc(C(=O)N4CCCC4)cc(N)n3n2)s1` [Example 69, [5-Amino-2-(5-methoxy-thiophen-2-yl)-[1,2,4]triazolo[1,5-a]pyridin-7-yl]-pyrrolidin-1-yl-methanone], for which the Ki under setting [1] worked out at 339 nM.
Still for that read-out and setting: to `COc1ccc(-c2nc3cc(C(=O)NC4CC4)cc(N)n3n2)s1` [Example 72, 5-Amino-2-(5-methoxy-thiophen-2-yl)-[1,2,4]triazolo[1,5-a]pyridine-7-carboxylic acid cyclopropylamide] belongs 260 nM; to `COc1ccc(-c2nc3cc(C(=O)NC4CCCCCC4)cc(N)n3n2)s1` [Example 74, 5-Amino-2-(5-methoxy-thiophen-2-yl)-[1,2,4]triazolo[1,5-a]pyridine-7-carboxylic acid cycloheptylamide], 367 nM; to `CCN(Cc1ccccc1F)C(=O)c1cc(N)n2nc(-c3ccc(OC)s3)nc2c1` [Example 76, 5-Amino-2-(5-methoxy-thiophen-2-yl)-[1,2,4]triazolo[1,5-a]pyridine-7-carboxylic acid ethyl-(2-fluoro-benzyl)-amide], 28.5 nM.
On to `Nc1cc(C(=O)NCc2ccccc2Br)cc2nc(-c3ccc[nH]3)nn12` [Example 92, 5-Amino-2-(1H-pyrrol-2-yl)-[1,2,4]triazolo[1,5-a]pyridine-7-carboxylic acid 2-bromo-benzylamide], for which the Ki under setting [1] was found to be 293 nM.
`CCN(Cc1ccccc1)C(=O)c1cc(N)n2nc(-c3ccc[nH]3)nc2c1` [Example 94, 5-Amino-2-(1H-pyrrol-2-yl)-[1,2,4]triazolo[1,5-a]pyridine-7-carboxylic acid benzyl-ethyl-amide]: the Ki under setting [1] stood at 395 nM.
Same read-out and setting: the value for `Nc1cc(C(=O)NC2CCC2)cc2nc(-c3ccc[nH]3)nn12` [Example 95, 5-Amino-2-(1H-pyrrol-2-yl)-[1,2,4]triazolo[1,5-a]pyridine-7-carboxylic acid cyclobutylamide] was 392 nM.
With `COc1ccc(CNC(=O)c2cc(N)n3nc(-c4cccs4)nc3c2)cc1` [Example 229, 5-Amino-2-thiophen-2-yl-[1,2,4]triazolo[1,5-a]pyridine-7-carboxylic acid 4-methoxy-benzylamide], under setting [1], the inhibition constant (Ki) was determined as 384 nM.
Take `Nc1cc(C(=O)NCc2ccc(Cl)cc2)cc2nc(-c3ccoc3)nn12` [Example 230, 5-Amino-2-furan-3-yl-[1,2,4]triazolo[1,5-a]pyridine-7-carboxylic acid 4-chloro-benzylamide]: under setting [1], the Ki amounted to 329 nM.
As to `COc1ccc(CNC(=O)c2cc(N)n3nc(-c4ccc(Br)o4)nc3c2)cc1` [Example 231, 5-Amino-2-(5-bromo-furan-2-yl)-[1,2,4]triazolo[1,5-a]pyridine-7-carboxylic acid 4-methoxy-benzylamide], the Ki under setting [1] was found to be 365 nM.
For `Nc1cc(C(=O)N2CCSCC2)cc2nc(-c3nccs3)nn12` [Example 318, (5-Amino-2-thiazol-2-yl-[1,2,4]triazolo[1,5-a]pyridin-7-yl)-thiomorpholin-4-yl-methanone], under setting [1], the Ki worked out at 332 nM.
Turning to `COCCN(CCOC)C(=O)c1cc(N)n2nc(-c3nccs3)nc2c1` [Example 321, 5-Amino-2-thiazol-2-yl-[1,2,4]triazolo[1,5-a]pyridine-7-carboxylic acid bis-(2-methoxy-ethyl)-amide], the Ki under setting [1] turned out to be 319 nM.
As for `CN(CCc1ccccn1)C(=O)c1cc(N)n2nc(-c3nccs3)nc2c1` [Example 324, 5-Amino-2-thiazol-2-yl-[1,2,4]triazolo[1,5-a]pyridine-7-carboxylic acid methyl-(2-pyridin-2-yl-ethyl)-amide], the Ki under setting [1] is 295 nM.
For `Nc1cc(C(=O)N2CC=C(c3ccccc3)CC2)cc2nc(-c3nccs3)nn12` [Example 326, (5-Amino-2-thiazol-2-yl-[1,2,4]triazolo[1,5-a]pyridin-7-yl)-(4-phenyl-3,6-dihydro-2H-pyridin-1-yl)-methanone], the Ki under setting [1] turned out to be 373 nM.
For the molecule `CN(C)C(=O)CN(C)C(=O)c1cc(N)n2nc(-c3nccs3)nc2c1` [Example 399, 5-Amino-2-thiazol-2-yl-[1,2,4]triazolo[1,5-a]pyridine-7-carboxylic acid dimethylcarbamoylmethyl-methyl-amide], the “selectivity (A1/A2a)” value came to 61.4. The Ki under setting [2] is 101 nM.
`CN(C)C(=O)[C@@H]1CCCN1C(=O)c1cc(N)n2nc(-c3nccs3)nc2c1` [Example 402, 1-(5-Amino-2-thiazol-2-yl-[1,2,4]triazolo[1,5-a]pyridine-7-carbonyl)-pyrrolidine-2-carboxylic acid dimethylamide]: the “selectivity (A1/A2a)” value was 21.2. The Ki under setting [2] turned out to be 293 nM.
Take `CC(=O)N(C)C1CCN(C(=O)c2cc(N)n3nc(-c4nccs4)nc3c2)C1` (centres unmarked) [Example 403, N-[1-(5-Amino-2-thiazol-2-yl-[1,2,4]triazolo[1,5-a]pyridine-7-carbonyl)-pyrrolidin-3-yl]-N-methyl-acetamide]: the “selectivity (A1/A2a)” value is 15.6. In addition, the Ki under setting [2] worked out at 398 nM.
The matching figures for `CN(C)C(=O)CN(C)C(=O)c1cc(N)n2nc(-c3ccccn3)nc2c1` [Example 428, 5-Amino-2-pyridin-2-yl-[1,2,4]triazolo[1,5-a]pyridine-7-carboxylic acid dimethylcarbamoylmethyl-methyl-amide]: 53.1 and 117 nM.
